Data: paper PMC11059095

Test: Brønsted acid catalysed 8-endo cationic carbocyclisation of biphenyl-embedded enynes (C-C bond between tertiary carbocation from protonated alkene and distal alkyne carbon); TfOH 10 mol%, vinyl cation trapped by H2O (1.1 equiv) or internal nucleophile
Settings: the molecule shown is the open-chain precursor; 8-membered ring; 1,2-dichloroethane; 50.0 mM; 60.0 °C

In order of rising ring closure, isolated yield:
1. COc1cccc(CC#Cc2ccccc2-c2ccccc2C=C(C)C)c1 [1v -> 6v]  29%
2. CC(C)=Cc1ccccc1-c1ccccc1C#CCCO [1u -> 6u]  31%

Same assay, conditions: the molecule shown is the open-chain precursor; 8-membered ring; 1,2-dichloroethane; 50.0 mM; 60.0 °C; 2.0 h

In order of rising ring closure, isolated yield:
1. CC#Cc1cc(OC)c(C)c(OC)c1-c1cc(Cl)ccc1C=C(C)C [1t -> 3t]  45%
2. CC#Cc1cc(OC)ccc1-c1ccccc1C=C(C)C [1s -> 3s]  70%
3. CC#Cc1ccccc1-c1ccc(OC)cc1C=C(C)C [1r -> 3r]  82%
4. CC#Cc1cc(Cl)ccc1-c1ccccc1C=C(C)C [1q -> 3q]  95%
5. CC#Cc1ccccc1-c1ccccc1C=C(C)C [1b -> 3b]  99%
6. CC#Cc1ccccc1-c1cc(Cl)ccc1C=C(C)C [1p -> 3p]  99%
